# Assay results published in patent US5440031A, “1,4,10,13-tetraoxa-7,16-diazacyclooctadecane derivatives, pharmaceutical compositions containing them and their use for the removal of toxic metal ions and radioactive isotopes from living organism” (priority 1990, dated 1995).
# Counter-ions that a name gives are not always drawn.
# Tests used:
# laboratory mice and rats = assay: acute toxicity, LD50/30, injection into blood circulation, 30 days observation; format: in vivo, Swiss mice and Wistar rats; conditions: dose causing death of 50% of animals within 30 days, slow injection into the blood circulation during 3 to 5 minutes, mice and rats, probit analysis
# Procedure: (§1) The acute toxicity values of the products prepared according to Examples 1 to 16 were determined on laboratory mice and rats in the following manner.
# (§2) Solutions containing the compounds in various concentrations were prepared by using physiological saline solution or glucose solution of 5% by weight concentration and the active agents were administered in various concentrations into the blood circulation of the animals by injecting them slowly during 3 to 5 minutes. Groups consisting of 6 to 10 animals (Swiss mice and Wistar rats of both sexes) each were used for the various dose levels. […] The LD50/30 value (i.e. the dose causing the death of 50% of the experimental animals within 30 days) was determined from the number of animals died during this period by using probit analysis/D. J. Finney: Probit Analysis (2nd ed.) Cambridge University Press (1952)/. These values expressed in mmol/kg of body-weight for the active agents according to the invention are summarized in column (B) of Table 1.
# [1] = radioactive isotope elimination-increasing effect, isotope into abdominal cavity, whole-body retention; format: in vivo, Swiss mice; conditions: for EI value: effectivity (isotope elimination as % related to control) multiplied by LD50/30, 0-5 weak, 5-50 medium, 50-100 good, above 100 excellent; for F factor: multiplication of isotope elimination relative to untreated animals, i.v. 50 to 100 μmol/kg, 30 to 60 minutes after isotope; for radioactivity excreted from the animal organism within 1 day / radioactivity excreted from the animal organism within 4 days / radioactivity excreted from the animal organism within 7 days: Sr-85 into abdominal cavity, single treatment, 100 μmol/kg (stated for Example 13); for radioactivity excreted from the animal organism within 1 day: control 15%; for radioactivity excreted from the animal organism within 4 days: control 25%; for radioactivity excreted from the animal organism within 7 days: control 30%
# Text: The action of the compounds of formula (I) according to the invention, which manifests itself as an increase in the elimination of metal ions damaging the living organism, was investigated by using radioactive strontium or cerium ions on Swiss mice and Wistar rats of both sexes.
# The elimination was studied on radioactive isotopes introduced in various routes to various sites, e.g. to the blood circulation, abdominal cavity, lungs, muscles or subcutaneous connective tissue of the experimental animals. The compound increasing the elimination of the isotopes was administered daily once or two times in the form of an injection, powder or liquid aerosol or plaster to the organism of the experimental animals. Thereafter, whole body activity measurements were performed and retention curves were taken up which then were compared to the results obtained in the control group.
# The retention curves obtained were analysed on a computer. "Nonlinear Regression by the Code of BMDP-3R" (BMDP Statistical Software Manual, UCLA, Los Angeles, 1990, Chief Ed. W. J. Dixon) computer software was used for this purpose. It could be stated from the results obtained that the curves could be described by a two-component descending exponential function. Two data were calculated for characterizing the effectivity. One of these was the so-called F factor indicating the increase in the elimination in relation to the control and meaning the multiplication of the isotope elimination under effect of the test compound in relation to the untreated animals/see column (C) in Table 1/.
# For the illustrative comparison of the compounds according to the invention additional characteristic data, the so-called EI values are given which were obtained by multiplying the extent of isotope elimination as percentage related to the control group (effectivity, E) with the acute toxicity value (LD50/30, innocuous, I)/see column (D) in Table 1/. Although the EI value is numerically not identical to the therapeutic ratio (safety index), it indicates in all cases to a weak or excellent activity of a product.
# The radioactive isotope elimination-increasing effects of compounds prepared according to Examples 1 to 16 were compared on Swiss mice as described hereinafter.
# An activity of 37 to 74 kBg (1 to 2 μCi) of radioactive strontium (Sr-85Cl2) or radioactive cerium (Ce-144Cl3), respectively, was administered into the abdominal cavity of the animals which were then divided into treatment groups consisting of 5 to 10 animals each. At 30 to 60 minutes after administration of the isotope, the animals of the treated groups were intravenously (i.v.) given the active agent used in an amount to achieve s concentration of 50 to 100 μmol/kg of body-weight in the animal organism for each treatment. The animals of the control groups were similarly treated with the carrier (sterile physiological saline or glucose solution of 5% by weight concentration) without active agent.
# The amount of radioactivity introduced to the animal organism was determined immediately after administration of the isotope, thru these measurements were repeated daily or in every two the or three days in a device constructed for the purpose of the whole-body measurements on small animals. The counts observed were related to the starting activity value of the zero (0) day and a so-called retention/time correlation was obtained by considering the activity retained in the organism. The change of activity of the animal organism in the time is illustrated in FIG. 1 where the time (in days) elapsed after the treatment is shown on the abscissa and the whole-body retention as percentage is plotted on the ordinate. It can be seen that the rate of elimination of Sr-85 administered into the abdominal cavity of control animals was slow: within 1 day only 15%, within 4 days 25% and within 7 days 30% of the activity were eliminated from their organism and the elimination was even more delayed in the later period. […]
# [2] = acute toxicity, LD50/30, injection into blood circulation, 30 days observation; format: in vivo, Swiss mice and Wistar rats; conditions: in vivo, iv; dose causing death of 50% of animals within 30 days; slow injection into the blood circulation during 3 to 5 minutes; mice and rats; probit analysis
# Procedure: as §1, §2
Compound,Acute toxicity LD50/30 (laboratory mice and rats),EI value [1],F factor [1],LD50 at 720 h [2] [µmol/kg],radioactivity excreted from the animal organism within 1 day [1] [%],radioactivity excreted from the animal organism within 4 days [1] [%],radioactivity excreted from the animal organism within 7 days [1] [%],Acute toxicity LD50/30 (laboratory mice and rats; 43200 min) [mmol/kg]
"N,N'-bis(dicarboxymethyl)-1,4,10,13-tetraoxa-7,16-diazacyclooctadecane iron(II) complex disodium salt [Example 9]",0.250 mmol/kg,8.25,1.7,,,,,
"CCC(C(=O)O)(C(=O)O)N1CCOCCOCCN(C(C(=O)O)C(=O)O)CCOCCOCC1 [Example 13, N-dicarboxymethyl-N'-(1,1'-dicarboxypropyl)-1,4,10,13-tetraoxa-7,16-diazacyclooctadecane tetrasodium salt sodium bromide double salt]",,13.30,2.1,302,40,65,67,
"O=C([O-])C(C(=O)[O-])N1CCOCCOCCN(C(C(=O)[O-])C(=O)[O-])CCOCCOCC1.[Ca+2].[Ca+2] [Example 8, N,N'-bis(dicarboxymethyl)-1,4,10,13-tetraoxa-7,16-diazacyclooctadecane calcium complex calcium salt]",above 1.5 mmol/kg,58.00,1.6,,,,,
"O=C(O)C(C(=O)O)N1CCOCCOCCN(C(C(=O)O)C(=O)O)CCOCCOCC1 [Example 2, N,N'-bis(dicarboxymethyl)-1,4,10,13-tetraoxa-7,16-diazacyclooctadecane tetrasodium salt containing disodium hydroxy malonate]",,11.10,3.3,368,,,,
"O=C(O)C(Cc1ccccc1)(C(=O)O)N1CCOCCOCCN(C(Cc2ccccc2)(C(=O)O)C(=O)O)CCOCCOCC1 [Example 16, N,N'-bis(benzyl-dicarboxymethyl)-1,4,10,13-tetraoxa-7,16-diazacyclooctadecane tetrasodium salt sodium bromide double salt]",,7.10,1.3,470,,,,
"O=C([O-])C(C(=O)[O-])N1CCOCCOCCN(C(C(=O)[O-])C(=O)[O-])CCOCCOCC1.[Na+].[Na+].[Zn+2] [Example 10, N,N'-bis(dicarboxymethyl)-1,4,10,13-tetraoxa-7,16-diazacyclooctadecane zinc complex disodium salt]",0.091 mmol/kg,3.20,2.3,,,,,
"O=C([O-])C(C(=O)[O-])N1CCOCCOCCN(C(C(=O)[O-])C(=O)[O-])CCOCCOCC1.[K+].[K+].[K+].[K+] [3/a, N,N'-bis(dicarboxymethyl)-1,4,10,13-tetraoxa-7,16-diazacyclooctadecane tetrapotassium salt]",,12.30,2.3,333,,,,
"O=C([O-])C(C(=O)[O-])N1CCOCCOCCN(C(C(=O)[O-])C(=O)[O-])CCOCCOCC1.[Na+].[Na+].[Na+].[Na+] [1/a, N,N'-bis(dicarboxymethyl)-1,4,10,13-tetraoxa-7,16-diazacyclooctadecane tetrasodium salt]",,5.40,1.8,327,,,,
"O=C([O-])C(C(=O)[O-])N1CCOCCOCCN(C(C(=O)[O-])C(=O)O)CCOCCOCC1.[Na+].[Na+].[Na+] [Example 11, N,N'-bis(dicarboxymethyl)-1,4,10,13-tetraoxa-7,16-diazacyclooctadecane trisodium salt]",,2.90,2.6,111,,,,
"O=C([O-])C(C(=O)[O-])N1CCOCCOCCN(C(C(=O)[O-])C(=O)[O-])CCOCCOCC1.[K+].[K+].[K+].[K+] [3/b, N,N'-bis(dicarboxymethyl)-1,4,10,13-tetraoxa-7,16-diazacyclooctadecane tetrapotassium salt]",,8.90,1.7,,,,,0.272
"N.N.O=C([O-])C(C(=O)[O-])N1CCOCCOCCN(C(C(=O)O)C(=O)O)CCOCCOCC1.[Ca+2] [Example 7, N,N'-bis(dicarboxymethyl)-1,4,10,13-tetraoxa-7,16-diazacyclooctadecane calcium complex diammonium]",above 2.5 mmol/kg,65.00,1.7,,,,,
"O=C([O-])C(C(=O)[O-])N1CCOCCOCCN(C(C(=O)[O-])C(=O)[O-])CCOCCOCC1.[Mg+2].[Na+].[Na+] [Example 4, N,N'-bis(dicarboxymethyl)-1,4,10,13-tetraoxa-7,16-diazacyclooctadecane magnesium complex disodium salt]",0.211 mmol/kg,7.30,2.3,,,,,
"O=C([O-])C(C(=O)[O-])N1CCOCCOCCN(C(C(=O)[O-])C(=O)[O-])CCOCCOCC1.[Na+].[Na+].[Na+].[Na+] [1/b, N,N'-bis(dicarboxymethyl)-1,4,10,13-tetraoxa-7,16-diazacyclooctadecane tetrasodium salt]",,9.66,2.8,,,,,0.379
"N,N'-bis(dicarboxymethyl)-1,4,10,13-tetraoxa-7,16-diazacyclooctadeoane calcium complex disodium salt containing sodium chloride [Example 5]",above 2.5 mmol/kg,145.00,3.7,,81,84,85,
"CC(C(=O)O)(C(=O)O)N1CCOCCOCCN(C(C)(C(=O)O)C(=O)O)CCOCCOCC1 [Example 15, N,N'-bis(1,1'-dicarboxyethyl)-1,4,10,13-tetraoxa-7,16-diazacyclooctadecanetetrasodium salt]",,6.80,1.3,450,,,,
"N,N'-bis(dicarboxymethyl)-1,4,10,13-tetraoxa-7,16-diazacyclooctadecane calcium complex disodium salt containing disodium hydroxymalonate and sodium chloride [6/a]",above 3.0 mmol/kg,158.00,3.9,,,,,
"CC(C(=O)[O-])(C(=O)[O-])N1CCOCCOCCN(C(C(=O)[O-])C(=O)[O-])CCOCCOCC1.[Na+].[Na+].[Na+].[Na+] [Example 12, N-dicarboxymethyl-N'-(1,1'-dicarboxyethyl)-1,4,10,13-tetraoxa-7,16-diazacyclooctadecane tetrasodium salt]",,7.90,1.5,305,,,,
